Here are results for one compound from US9642829B2, “Antifungal compound and uses thereof” (The University of Hong Kong, priority 2012, dated 2017).

One data set relates to Escherichia coli. As to the kind of experiment: Antibacterial activity (FIG. 3). Conditions: dose of 2 μg. It is filed as cell-based. As to the method: (§1) FIGS. 3A-C. Antibacterial activity of SM21 at dose of 2 μg was examined for three bacterial species together with other antifungal agents caspofungin, amphotericin B and chlorhexidine. (A) Lactobacillus acidophilus (B) Streptococcus mutans and (C) Escherichia coli were used for the experiments.
(§2) Oral Biosciences laboratory has one of the largest collections of fungal isolates, particular that of Candida species in the world. In our previous studies, we have found multidrug resistant clinical isolates of Candida species against existing antifungals. In particular, some of these strains are resistant to best antifungal agents to date such as caspofungin, amphotericin B and fluconazole. Therefore, we performed antifungal susceptibility testing for SM21 against these drug resistant Candida isolates suing CLSI M27A brothmicrodultion assay and CLSI M44-A disc diffusion assay.

A further data set relates to Streptococcus mutans. As to the kind of experiment: Antibacterial activity (FIG. 3). Conditions: dose of 2 μg. It is filed as cell-based. As to the method:
as §1, §2

Data set [1] deals with Lactobacillus acidophilus. As to the kind of experiment: Antibacterial activity (FIG. 3). It is filed as cell-based. The conditions noted are these: dose of 2 μg. As to the method: as §1, §2
The subject of another data set is C. glabrata. Description: Antifungal susceptibility (MIC/MFC), CLSI criteria. The conditions noted are these: C. glabrata ATCC; 0.5 McFarland inoculum (10^6 cells/ml). It is filed as cell-based, Candida glabrata. As to the method: (§3) Antifungal activity of the small molecules was evaluated using USA standards, Clinical and Laboratory Standards Institute (CLSI) criteria. In brief, inocula from 24 h Candida cultures on Sabourauds's dextore agar were standardized to a turbidity equivalent of 0.5 McFarland standards at 520 nm with a spectrophotometer. The suspensions were further diluted in Rosewell Park Memorial Institute (RPMI) 1640 medium (Life technologies, New York, USA) to yield an inoculum concentration of approximately 0.5 1×10^3 to 2.5 1×10^3 cells/ml. Minimum inhibitory concentration (MIC) and minimum fungicidal concentration (MFC) assay was performed in 96-well plates (Iwaki, Tokyo, Japan) and each of the Candida species was exposed to a double dilution of SM21. Amphotericin B was used as a positive control. All the experiments were preformed three occasions with duplicates for all isolates. The plates were incubated at 35° C. for 48 h to evaluate MIC. In the case of Cryotococcus neoformans, reading were taken after 72 h. Aforementioned assay was performed for C. albicans ATCC 90028, C. albicans SC5314 and 10 C. albicans clinical isolates. Moreover, MIC/MFC determination was carried out for other fungal species such as C. glabrata, C. krusei, C. tropicalis, C. parapsilosis, C. neoformans, Aspergillus fumigates and Penicillium marneffei. […]

Data set [2] concerns C. glabrata drug resistant isolates. As to the kind of experiment: Susceptibility of multidrug resistant clinical isolates, CLSI M27A broth microdilution. It is filed as cell-based, Candida glabrata.
Excerpt: as §2
In general terms: Broth dilution looks for growth in wells or tubes with falling amounts of substance.

The subject of the next data set is C. parapsilosis. As to the kind of experiment: Antifungal susceptibility (MIC/MFC), CLSI criteria. It is filed as cell-based, Candida parapsilosis. The conditions noted are these: C. parapsilosis ATCC; 0.5 McFarland inoculum (10^6 cells/ml). As to the method: as §3
The subject of another data set is C. krusei. As to the kind of experiment: Antifungal susceptibility (MIC/MFC), CLSI criteria. It is filed as cell-based, Candida krusei. The conditions noted are these: C. krusei ATCC; 0.5 McFarland inoculum (10^6 cells/ml). As to the method: as §3
Data set [3] in a line: In vivo safety in mouse model. Conditions: 200 μg (100 times the effective dose of 2 μg) twice a day for five days. As to the method:
Next, we used mouse model and treated the animals with 100 times of the effective dose (2 μg) i.e. 200 μg of SM21 twice a day for five days.

For `CN(C)c1ccc(/C=C/c2cc(C(C)(C)C)[o+]c(C(C)(C)C)c2)cc1.[O-][Cl+3]([O-])([O-])[O-]` [SM21], the Antibacterial activity result (with Escherichia coli; with Streptococcus mutans; in data set [1]) was “not anti-bacterial” each time. Further, the “Susceptibility (MIC90)” value was determined as 1.6 µg/mL in the data set on C. glabrata, 1.6 µg/mL with C. parapsilosis and 0.4 µg/mL in the data set on C. krusei. Besides, the MIC (usually the least concentration at which growth counts as inhibited) in data set [2] (C. glabrata 1570, resistant to Itraconazole) came to 0.5 µg/mL; in data set [2] (C. glabrata T1585, resistant to Fluconazole, Itraconazole, ketoconazole, Voriconazole), 1 µg/mL; in data set [2] (C. glabrata T1672, resistant to Itraconazole, Ketaconazole), 0.5 µg/mL. Besides, in data set [3], the “Detrimental effect in terms of weight reduction and side effects” value was “did not show any detrimental effect”.
